Patent US6924288B2, “Enantiomerically pure opioid diarylmethylpiperzine and methods of using same” (priority 2001, dated 2005)

Assays:
[1] = biological target: T1, μ opioid receptor (Rattus norvegicus, UniProt P33535); assay: Radioligand binding, [3H]DAMGO competition, rat brain membranes; details: rat brain membranes, [3H]DAMGO; read-out: Rat Brain Membrane K1 (nM) μ
T1 construct: tissue Pel-Freeze Biological Inc. (Rogers, Ark.); host or cells: rat whole brain membranes
Method: (§1) Two stereoisomerically related racemic mixtures and inclusive enantiomers were evaluated for in vitro opioid receptor affinity in rat brain membranes (μ and δ opioid) and guinea pig cerebellum (κ opioid receptor). Membranes for radioligand binding were prepared from either rat whole brain or guinea pig cerebellum, supplied by Pel-Freeze Biological Inc. (Rogers, Ark.). Tissues were homogenized in 50 mM TRIS (Tris[hydrooxymethyl]aminomethane) buffer (pH 7.4) containing 50 ug/ml soybean trypsin inhibitor, 1 mM EDTA (Ethylenediaminetetraacetic acid), and 100 μM PMSF (Phenylmethylsulfonyl fluoride). The homogenized brain tissues were centrifuged at 500×g for 30 minutes (4° C.) to remove large debris. The supernatant was polytronically sonicated for 10 seconds (P.E. setting of 2, 4° C.). Sucrose solution was then added to a final concentration of 0.35 M using a 10 mM TRIS-Sucrose buffer (pH 7.4) and the brain membranes were then centrifuged at 40,000×g for 30 minutes (4° C.). The membrane pellets were then washed twice in 10 mM TRIS buffer (pH 7.4) containing 50 μg/ml soybean trypsin inhibitor, 1 mM EDTA, and 100 μM PMSF.
(§2) Radioligand binding assays were performed in 10 mM TRIS buffer (pH 7.4) containing 50 μg/ml soybean trypsin inhibitor, 1 mM EDTA, 5 mM MgCl2, and 100 μM PMSF. Tritium-labeled DAMGO (μ), Deltorphin II (δ), or U69593 (κ) purchased from New England Nuclear were used as ligands in competitive experiments (2-3×10^−10 M final concentrations) with non-specific binding defined by 0.5×10^−6 M Naloxone (purchased from SIGMA Chemical Co.). All binding assays were run at room temperature for 90 minutes and then terminated by rapid filtration on GF/C glass fiber filters (Whatman, Hillsboro, Oreg.) with 50 mM TRIS buffer (4° C., pH 7.4) employing a Brandel Semi-automatic Cell Harvester (Model M48, Brandel, Gaithersburg, Md.). The filters were washed twice with 50 mM TRIS buffer (4° C., pH 7.4) and the filters were placed in liquid scintillation cocktail and the bound radioactivity counted on a Beckman LS 6500 scintillation counter. The potency of the compounds in inhibiting the binding of radiolabelled DAMGO (μ), Deltorphin II (δ), or U69593 (κ) was determined from full concentration-effect curves. With the computer program Prism (GraphPad Software Inc., San Diego, Calif.) the IC50 values were determined using a one-site nonlinear regression analysis of the radioligand binding data. The IC50 values were then converted to Ki values using the Cheng-Prusoff equation. (Cheng Y and Prusoff W H (1973) Relationship between the inhibition constant (K1) and the concentration of inhibitor which causes 50 percent inhibition (I50) of a enzymatic reaction. Biochem Pharm 22:3099-3108.)

[2] = system: rats; assay: Respiratory depression by blood gas (pCO2) monitoring in rats; type: in vivo; details: rat; for Respiratory Depression % Units Baseline pCO2: 0.30 mg/kg i.v.; for Safety Ratio (respiratory depression ED50 divided by analgesia ED50): intravenous; for Mortality due to respiratory depression / Effect on blood pCO2 levels in words: i.v.
Method: (§3) Analgesia was assayed in rats using the tail pinch test with simultaneous monitoring of capillary blood gases (pCO2). During this testing period respiratory depression values were also obtained. Male rats (Wistar Hannover 200-300 g) were anesthetized with 2% isoflurane (J. A. Webster, Inc., Sterling, Mass. The femoral artery was cannulated with PE50 tubing for blood sampling. The external jugular vein was also cannulated with Silastic tubing for drug injection. After surgery, anesthetic gases were removed and the rat was allowed to rest in a plastic restrainer for 60 minutes to establish baseline values of blood gases.
(§4) The compounds 1-6 were administered intravenous. Nociceptive response and respiratory values were obtained for a 1-2 hour period. The femoral artery cannulation was used to draw arterial blood into a syringe pre-wetted with heparin. Samples were then analyzed with a blood gas analyzer (Ph/Gas Analyzer Synthesis 25 Model, Instrumentation Laboratory) to assess respiratory depression effects. The volume of blood taken each time was 0.15 cc. The syringes were capped immediately and the blood gases analyzed within 5 minutes. The blood exposed to air at the tip of the syringe was expelled. The blood was mixed by gentle inversion and an aliquots of 0.10 cc was injected into the blood gas analyzer.
(§5) The gas analyzer was well maintained and operated. Calibrations (low, normal and high) were done at the beginning of every day of testing. The sample lines, co-oximeter and the blood gas electrode were cleaned regularly at the end of every day of testing. Hematocrit calibration (high and low) was scheduled on a weekly basis and tubing, sample and pinch valve were replaced on a monthly basis.
(§6) The ED50 values for analgesia potency and respiratory depression were determined to calculate the safety or therapeutic ratio, which is defined as the respiratory depression ED50 divided by analgesia ED50.

[3] = as above; type: in vivo; details: male, Wistar Hannover, in vivo; rat, intravenous
Method: as §3, §4, §5, §6

[4] = system: rats; assay: Tail pinch test for analgesia in rats; type: in vivo; details: rat; for Analgesia (delay of response to tail pinch): 0.30 mg/kg i.v., cutoff 20 sec; for ED50: intravenous, 20 sec cutoff; for ED50 / Analgesic effect in words: tail pinch; for Analgesic effect in words: i.v., FIGS. 1-6
Method: as §3, §4
An artery clamp was placed on the tail (one inch from the tip of the tail) for a short duration until an escape response occurred (i.e. tail-flick or vocalization). The escape response latency was recorded by means of a stopwatch. A cutoff time of 20 sec. was used to prevent unnecessary tissue damage. […] The elapsed time to elicit a pain response was recorded as the tail pinch latency in seconds. Blood gases were monitored at approximately the same time points as the tail pinch test.
as §6

[5] = biological target: T2, κ opioid receptor (Cavia porcellus, UniProt P41144); assay: Radioligand binding, [3H]U69593 competition, guinea pig cerebellum membranes; details: read-out: Guinea Pig Brain Membrane K1 (nM) κ
T2 construct: tissue Pel-Freeze Biological Inc. (Rogers, Ark.); host or cells: guinea pig cerebellum membranes
Method: as §1, §2

[6] = biological target: T3, δ opioid receptor (Rattus norvegicus, UniProt P33533); assay: Radioligand binding, [3H]Deltorphin II competition, rat brain membranes; details: read-out: Rat Brain Membrane K1 (nM) δ
T3 construct: tissue Pel-Freeze Biological Inc. (Rogers, Ark.); host or cells: rat whole brain membranes
Method: as §1, §2

[7] = biological target: T4, Mu receptor, mouse vas deferens (Mus musculus, UniProt P42866); assay: Mouse vas deferens, inhibition of electrically induced contractions, mu (with TIPP and nor-BNI); type: cell-based; details: in presence of 3 μM TIPP and 15 nM nor-BNI; read-out: Mouse Vas Deferens ED50 (nM) μ
T4 construct: Mouse vasa deferentia (MVD), CD-1 strain, Harlan, Raleigh, N.C.) were removed from mice; tissue Harlan, Raleigh, N.C; (animals); host or cells: mouse vas deferens, CD-1 strain

[8] = biological target: T5, Delta receptor, mouse vas deferens (Mus musculus, UniProt P32300); assay: Mouse vas deferens, inhibition of electrically induced contractions, delta; type: cell-based; details: read-out: Mouse Vas Deferens ED50 (nM) δ
T5 construct: Mouse vasa deferentia (MVD), CD-1 strain, Harlan, Raleigh, N.C.) were removed from mice; tissue Harlan, Raleigh, N.C; (animals); host or cells: mouse vas deferens, CD-1 strain
Method: The compound of formula (I) and compounds 1, 3, 4, 5 and 6 as identified above, were evaluated for in vitro opioid receptor activity in various receptor systems, including mouse vas deferens (Mouse Vas Deferens ED50), and guinea pig ileum (Guinea Pig Ileum ED50). The assay procedures used for such determinations of receptor activity are set out below.
In vitro bioassays: Mouse vasa deferentia (MVD), CD-1 strain, Harlan, Raleigh, N.C.) were removed from mice and suspended between platinum electrodes with 0.5 g of tension in organ bath chambers containing a modified Mg^++ free Krebs buffer of the following composition (millimolar): NaCl, 117.5; KCl, 4.75; CaCl2, 2.6; KH2PO4, 1.20; NaHCO3, 24.5; and glucose, 11. The buffer was saturated with 95% O2/5% CO2 and kept at 37° C. Tissues were stimulated at supramaximal voltage with 10-Hz pulse trains for 400-msec.; train interval 10 seconds; and 1.0 msec pulse duration at maximal voltage. Delta receptor activity was determined by adding appropriate concentrations of test compound to organ baths and allowing a maximal response before addition of the next higher concentration.
The ED50 values were extrapolated from curves showing the dose concentration plotted against the response (J. A. H. Lord, A. A. Waterfield, J. Hughes, H. W. Kosterlitz, Nature 267, 495, (1977)).

Row | SMILES | Ki [1] [nM] | Respiratory Depression % Units Baseline pCO2 ([2]; 4 min.) [%] | Respiratory Depression % Units Baseline pCO2 ([2]; 8 min.) [%] | Respiratory Depression % Units Baseline pCO2 ([2]; 32 min.) [%] | Safety Ratio (respiratory depression ED50 divided by analgesia ED50) [2] | ED50 [3] [mg/kg] | Analgesia (delay of response to tail pinch) ([4]; 4 min.) [s] | Analgesia (delay of response to tail pinch) ([4]; 8 min.) [s] | Analgesia (delay of response to tail pinch) ([4]; 32 min.) [s] | ED50 [4] [mg/kg] | Ki [5] [nM] | Ki [6] [nM] | EC50 [7] [nM] | EC50 [8] [nM] | Mortality due to respiratory depression [2] | Analgesic effect in words [4] | Effect on blood pCO2 levels in words [2]
1 | C=CCN1C[C@@H](C)N([C@@H](c2ccsc2)c2cccc(O)c2)C[C@@H]1C (racemic) [Compound 1, (±)3-((R*)-((2R*,5S*)-4-allyl-2,5-dimethyl-1-piperazinyl)(3-thienyl)methyl)phenol] | 0.36 | 21 | 25 | 7 | 4.7 | 0.98 | 19.5 | 10.5 | 1 | 0.21 | 1.67 | 1.29 | 881 | 30 | – | – | –
2 | C=CCN1C[C@H](C)N([C@@H](c2ccsc2)c2cccc(O)c2)C[C@H]1C (racemic) [Compound 4, (±)3-((R*)-((2S*,5R*)-4-allyl-2,5-dimethyl-1-piperazinyl)(3-thienyl)methyl)phenol] | 0.18 | 117 | 91 | 43 | 2.4 | 0.12 | 20 | 20 | 10 | 0.05 | 2.34 | 14.9 | 170 | 58 | several of the test subjects died | – | –
3 | C=CCN1C[C@@H](C)N([C@@H](c2ccsc2)c2cccc(O)c2)C[C@@H]1C (relative stereo) [Compound 1, (±)3-((R*)-((2R*,5S*)-4-allyl-2,5-dimethyl-1-piperazinyl)(3-thienyl)methyl)phenol] | – | – | – | – | – | – | – | – | – | – | – | – | – | – | – | only limited analgesia for a short time | –
4 | C=CCN1C[C@@H](C)N([C@@H](c2ccsc2)c2cccc(O)c2)C[C@@H]1C [Compound 3, (+)3-((R)-((2R,5S)-4-allyl-2,5-dimethyl-1-piperazinyl)(3-thienyl)methyl)phenol] | 658 | 0 | 0 | 0 | – | > 6 | 0 | 0 | 0 | > 6 | 100 | 744 | > 1000 | > 1000 | – | no measurable analgesic effect | no effect on blood pCO2 levels
5 | C=CCN1C[C@H](C)N([C@@H](c2ccsc2)c2cccc(O)c2)C[C@H]1C [Compound 5, (+)-3-((R)-((2S,5R)-4-allyl-2,5-dimethyl-1-piperazinyl)(3-thienyl)methyl)phenol] | 0.75 | 120 | 78 | 45 | 2.2 | 0.067 | 20 | 20 | 20 | 0.03 | 1.73 | 113 | 79.3 | 1.3 | several of the test subjects died | – | –
6 | C=CCN1C[C@@H](C)N([C@H](c2ccsc2)c2cccc(O)c2)C[C@@H]1C [Compound 6, (−)3-((S)-((2R,5S)-4-allyl-2,5-dimethyl-1-piperazinyl)(3-thienyl)methyl)phenol] | 60 | 0 | 0 | 0 | – | > 6 | 0 | 0 | 0 | > 6 | 16 | 13 | > 1000 | 282 | – | no measurable analgesic effect | no effect on blood pCO2 levels
